Source: patent US20070148225A1 (ALCON, INC., priority 2005, published 2007)

Test system: FGFR
Experiment: Kinase inhibition, cell-free enzymatic assay
Assay type: biochemical
Details: 1 mM ATP

- IC50: > 12.5 µM
Structure (SMILES): Cc1ccc(F)c(NC(=O)Nc2ccc(-c3cccc4[nH]nc(N)c34)cc2)c1 [RTKi, N-[4-(3-amino-1H-indazol-4-yl)phenyl]-N′-(2-fluoro-5-methylphenyl) urea]
